# Experimental data taken from patent publication US20240307426A1, “USE OF SGLT-2 INHIBITORS FOR THE PREVENTION AND/OR TREATMENT OF RENAL DISEASES IN NON-HUMAN MAMMALS” (BOEHRINGER INGELHEIM VETMEDICA GMBH, priority 2021, published 2024).
# Tested on: cats with chronic kidney disease (CKD)
# Assay: Exploratory clinical field trial in cats with CKD (Example 3)
# Type: in vivo, cat
# Design: key to IRIS Stage (based on serum creatinine level) / IRIS Stage (based on creatinine level) / IRIS Stage (based on the creatinine level): IRIS CKD stage assigned from serum creatinine (IRIS 2019)
# Conditions: for Phosphorus: ref 0.8-2.2; for Serum creatinine: ref 0.9-2.3; for Potassium: ref 3.3-5.8; for Hematocrit: ref 28.2-52.7; for UPC: ref <0.33
# Procedure: The clinical trial was conducted at three animal clinics. Overall, 9 cats with chronic kidney disease (CKD) were included in the study and treated once daily orally with 1 mg/kg bodyweight velagliflozin for up to 150 days (depending on the time of enrollment).
# Diagnosis of CKD was based on two measurements of serum creatinine concentration at least 2 weeks apart from each other (historical value and screening, and value at screening in fasted cats), as recommended by the International Renal Interest Society (IRIS 2019). In order to qualify for enrollment, serum creatinine levels needed to be ≥2.2 mg/dL, but <5.0 mg/dL.
# Disease staging throughout the study was performed based on serum creatinine levels in accordance with the IRIS CKD staging (IRIS 2019).
# All other cats were treated for >90 days had at least data for two time points under treatment available and were therefore evaluated. Progression of the disease, as well as IRIS staging in this study was based on the most reliable biomarker: serum creatinine.
# [1] = case 200-006, Visit 2 (Day 90), 1 mg/kg po once daily
# [2] = case 200-006, Visit 3 (Day 121), 1 mg/kg po once daily
# [3] = case 200-006, screening visit (before treatment)
# [4] = case 200-007, 1 mg/kg po once daily
# [5] = case 200-007, 1 mg/kg po once daily, whole study
# [6] = case 200-007, Visit 1 (Day 30), 1 mg/kg po once daily
# [7] = case 200-007, Visit 2 (Day 90), 1 mg/kg po once daily
# [8] = case 200-007, Visit 3 (Day 114), 1 mg/kg po once daily
# [9] = case 200-007, screening visit (before treatment)
# [10] = case 300-003 (IRIS stage 2), removed early on day 30
# [11] = case 300-008, 1 mg/kg po once daily
# [12] = case 300-008, 1 mg/kg po once daily, whole study
# [13] = case 300-008, Visit 1 (Day 30), 1 mg/kg po once daily
# [14] = case 300-008, Visit 2 (Day 90), 1 mg/kg po once daily
# [15] = case 300-008, Visit 3 (Day 103), 1 mg/kg po once daily
# [16] = case 300-008, screening visit (before treatment)
# [17] = case 400-004, 1 mg/kg po once daily
# [18] = case 400-004, 1 mg/kg po once daily, whole study
# [19] = case 400-004, Visit 1 (Day 30), 1 mg/kg po once daily
# [20] = case 400-004, Visit 2 (Day 90), 1 mg/kg po once daily
# [21] = case 400-004, Visit 3 (Day 119), 1 mg/kg po once daily
# [22] = case 400-004, screening visit (before treatment)
smiles,measurement,setting,value
"N#Cc1ccc([C@@H]2O[C@H](CO)[C@@H](O)[C@H](O)[C@H]2O)cc1Cc1ccc(C2CC2)cc1 [velagliflozin, Velagliflozin]",Systolic blood pressure,[1],155.3 mmHg
same,Phosphorus,[1],1.3 mmol/L
same,Serum creatinine,[1],2.7 mg/dL
same,Potassium,[1],4.4 mmol/L
same,Hematocrit,[1],37.3%
same,UPC,[1],0.2
same,BUN,[2],42 mg/dL
same,IRIS Stage (based on the creatinine level),[2],2
same,Owner assessment - quality of life,[2],good
same,Owner assessment of the appetite,[2],normal
same,Owner assessment of the drinking behavior,[2],excessive
same,Systolic blood pressure,[2],140.0 mmHg
same,Phosphorus,[2],2.0 mmol/L
same,Serum creatinine,[2],2.8 mg/dL
same,Potassium,[2],4.3 mmol/L
same,Hematocrit,[2],35.5%
same,BUN,[3],34 mg/dL
same,IRIS Stage (based on the creatinine level),[3],2
same,Owner assessment - quality of life,[3],good
same,Owner assessment of the appetite,[3],poor
same,Owner assessment of the drinking behavior,[3],excessive
same,Systolic blood pressure,[3],141.3 mmHg
same,Phosphorus,[3],1.3 mmol/L
same,Serum creatinine,[3],2.6 mg/dL
same,Potassium,[3],3.8 mmol/L
same,Hematocrit,[3],37.9%
same,UPC,[3],0.1
same,adverse events,[4],"three occasions of vomitus, two occasions of inappetence and one occasion of mild anaemia, leukocytopenia"
same,expected glucosuric effect,[4],confirmed
same,Serum creatinine levels (course),[5],increased mildly
same,Serum potassium levels (course),[5],remained stable within the reference range
same,Total urine protein and UPC,[5],mildly increased
same,drinking behavior (course),[5],improved to normal
same,quality of life (course),[5],changed from very good to good
same,the cat's condition,[5],stable
same,BUN,[6],40 mg/dL
same,IRIS Stage (based on the creatinine level),[6],3
same,Owner assessment - quality of life,[6],very good
same,Owner assessment of the appetite,[6],normal
same,Owner assessment of the drinking behavior,[6],normal
same,Systolic blood pressure,[6],122.7 mmHg
same,Phosphorus,[6],1.0 mmol/L
same,Serum creatinine,[6],3.2 mg/dL
same,Potassium,[6],4.0 mmol/L
same,Hematocrit,[6],35.9%
same,BUN,[7],42 mg/dL
same,IRIS Stage (based on the creatinine level),[7],3
same,Owner assessment - quality of life,[7],good
same,Owner assessment of the appetite,[7],normal
same,Owner assessment of the drinking behavior,[7],normal
same,Systolic blood pressure,[7],130.7 mmHg
same,Phosphorus,[7],1.3 mmol/L
same,Serum creatinine,[7],3.3 mg/dL
same,Potassium,[7],4.4 mmol/L
same,Hematocrit,[7],32.6%
same,UPC,[7],0.2
same,BUN,[8],43 mg/dL
same,IRIS Stage (based on the creatinine level),[8],3
same,Owner assessment - quality of life,[8],good
same,Owner assessment of the appetite,[8],normal
same,Owner assessment of the drinking behavior,[8],normal
same,Systolic blood pressure,[8],130.7 mmHg
same,Phosphorus,[8],1.3 mmol/L
same,Serum creatinine,[8],3.2 mg/dL
same,Potassium,[8],3.9 mmol/L
same,Hematocrit,[8],28.9%
same,BUN,[9],41 mg/dL
same,IRIS Stage (based on the creatinine level),[9],3
same,Owner assessment - quality of life,[9],very good
same,Owner assessment of the appetite,[9],normal
same,Owner assessment of the drinking behavior,[9],excessive
same,Systolic blood pressure,[9],139.3 mmHg
same,Phosphorus,[9],1.2 mmol/L
same,Serum creatinine,[9],2.9 mg/dL
same,Potassium,[9],4.4 mmol/L
same,Hematocrit,[9],37.6%
same,UPC,[9],0.1
same,evaluated clinical signs,[10],no worsening of the evaluated clinical signs
same,laboratory parameters,[10],stable laboratory parameters
same,reported events,[10],"Tooth pain, anorexia and feline odontoclastic-resorptive lesions (FORL) were reported"
same,adverse events,[11],No adverse event was reported
same,expected glucosuric effect,[11],confirmed
same,Drinking behavior according to owner's assessment (course),[12],improved from excessive to normal
same,condition (clinical signs and biochemical parameters),[12],stabilization of the condition
same,course of serum creatinine concentration,[12],remained stable
same,serum potassium and phosphate levels,[12],remained in the reference range
same,total urine protein and UPC ratio,[12],remained within the reference range
same,BUN,[13],65 mg/dL
same,IRIS Stage (based on creatinine level),[13],2
same,Owner assessment - quality of life,[13],good
same,Owner assessment of the appetite,[13],poor
same,Owner assessment of the drinking behavior,[13],normal
same,Systolic blood pressure,[13],150.0 mmHg
same,Phosphorus,[13],1.4 mmol/L
same,Serum creatinine,[13],1.9 mg/dL
same,Potassium,[13],4.9 mmol/L
same,Hematocrit,[13],28.8%
same,BUN,[14],64 mg/dL
same,IRIS Stage (based on creatinine level),[14],2
same,Owner assessment - quality of life,[14],good
same,Owner assessment of the appetite,[14],normal
same,Systolic blood pressure,[14],150.0 mmHg
same,Phosphorus,[14],1.5 mmol/L
same,Serum creatinine,[14],2.4 mg/dL
same,Potassium,[14],4.4 mmol/L
same,Hematocrit,[14],32.4%
same,UPC,[14],0.2
same,BUN,[15],54 mg/dL
same,IRIS Stage (based on creatinine level),[15],2
same,Owner assessment - quality of life,[15],good
same,Owner assessment of the appetite,[15],normal
same,Owner assessment of the drinking behavior,[15],normal
same,Systolic blood pressure,[15],148.7 mmHg
same,Phosphorus,[15],1.6 mmol/L
same,Serum creatinine,[15],2.6 mg/dL
same,Potassium,[15],4.4 mmol/L
same,Hematocrit,[15],28.2%
same,UPC,[15],0.3
same,BUN,[16],36 mg/dL
same,IRIS Stage (based on creatinine level),[16],2
same,Owner assessment - quality of life,[16],good
same,Owner assessment of the appetite,[16],normal
same,Owner assessment of the drinking behavior,[16],excessive
same,Systolic blood pressure,[16],148.0 mmHg
same,Phosphorus,[16],1.3 mmol/L
same,Serum creatinine,[16],2.4 mg/dL
same,Potassium,[16],4.9 mmol/L
same,Hematocrit,[16],26.7%
same,UPC,[16],0.2
same,adverse events,[17],One non-serious adverse event was reported (owner reported diarrhea)
same,expected glucosuric effect,[17],confirmed
same,Drinking behavior according to the owner (course),[18],improved from excessive to normal
same,UPC ratio (course),[18],remained in the normal range
same,condition (clinical signs and biochemical parameters),[18],improvement of the condition
same,course of BUN concentration,[18],decrease
same,course of serum creatinine concentration,[18],decrease
same,serum potassium and phosphate levels,[18],remained within the reference range
same,total urine protein,[18],reduced
same,BUN,[19],20.0 mg/dL
same,IRIS Stage (based on serum creatinine level),[19],3
same,Owner assessment - quality of life,[19],good
same,Owner assessment of the appetite,[19],normal
same,Owner assessment of the drinking behavior,[19],normal
same,Systolic blood pressure,[19],142.7 mmHg
same,Phosphorus,[19],1.3 mmol/L
same,Serum creatinine,[19],4.0 mg/dL
same,Potassium,[19],3.9 mmol/L
same,Hematocrit,[19],41.0%
same,BUN,[20],19.3 mg/dL
same,IRIS Stage (based on serum creatinine level),[20],3
same,Owner assessment - quality of life,[20],good
same,Owner assessment of the appetite,[20],poor
same,Owner assessment of the drinking behavior,[20],normal
same,Systolic blood pressure,[20],157.3 mmHg
same,Phosphorus,[20],1.3 mmol/L
same,Serum creatinine,[20],3.2 mg/dL
same,Potassium,[20],3.8 mmol/L
same,Hematocrit,[20],45.0%
same,UPC,[20],0.1
same,BUN,[21],24.3 mg/dL
same,IRIS Stage (based on serum creatinine level),[21],3
same,Owner assessment - quality of life,[21],good
same,Owner assessment of the appetite,[21],normal
same,Owner assessment of the drinking behavior,[21],normal
same,Systolic blood pressure,[21],149.3 mmHg
same,Phosphorus,[21],1.5 mmol/L
same,Serum creatinine,[21],2.9 mg/dL
same,Potassium,[21],4.0 mmol/L
same,Hematocrit,[21],45.0%
same,BUN,[22],20.2 mg/dL
same,IRIS Stage (based on serum creatinine level),[22],3
same,Owner assessment - quality of life,[22],good
same,Owner assessment of the appetite,[22],normal
same,Owner assessment of the drinking behavior,[22],excessive
same,Systolic blood pressure,[22],151.3 mmHg
same,Phosphorus,[22],1.4 mmol/L
same,Serum creatinine,[22],4.2 mg/dL
same,Potassium,[22],4.3 mmol/L
same,Hematocrit,[22],44.0%
same,UPC,[22],0.1
same,Clinical signs related to CKD,"evaluated cats, 1 mg/kg po once daily",either remained good/stable or improved in the majority of cats
same,"risk factors for progression of the disease (e.g. UPC, blood pressure, potassium, phosphorus)","feline CKD patients, 1 mg/kg orally once daily",remained stable and within the reference range
same,IRIS staging,one of the 3 cats with decreased serum creatinine (stage 3->stage 2),improved by one category
same,complications of CKD,"oral 1 mg/kg bodyweight once daily, evaluated cats",no complications of CKD observed
same,laboratory parameters related to CKD (serum creatinine) and clinical signs,the other 4 of seven evaluated cats,stable condition
